Source: patent publication US20100197745A1, “GAMMA-GLUTAMYL TRANSPEPTIDASE INHIBITORS AND METHODS OF USE” (priority 2008, published 2010)
“Also recorded” adds a separate entry of the source. Read-outs that look alike come from different tables or passages of the source. Residues, ends and D or L forms follow the SMILES beside them.

Legend:
786-O cells = experiment: Cytotoxicity assay (MTT, 72 hr) in dividing 786-O cells; assay type: cell-based
Description: 786-O (ATCC CRL-1932), a human renal cell adenocarcinoma line, was plated in DMEM supplemented with 5% FBS and penicillin/streptomycin (50 U/mL, 50 ug/mL) at 10^3 cells per well in 96-well plates. The next day the medium was changed to fresh DMEM containing FBS, antibiotics and the test compound. Equivalent concentrations of DMSO were added to control wells. Cell viability was determined by the MTT assay 72 hr after the addition of the test compound (20).
A two-tailed t-test was used to detect significant differences between OU749 inhibition of human GGT and inhibition of GGT from other species.

[1] = test system: metastatic melanoma to the liver; details: acivicin used to deplete tumor GSH in combination with aggressive therapy (ref. 4); cited from earlier work
[2] = target: T1, GGT isolated from human kidney (Homo sapiens, UniProt P19440); experiment: GGT transpeptidation kinetic assay (GpNA / glycyl-glycine) with GGT isolated from human kidney; assay type: biochemical; details: for Michaelis constant of the substrate (Kglygly, KGpNA): human kidney GGT
T1 construct: GGT was isolated from human kidney; tissue National Disease Research Interchange, Philadelphia, PA; host or cells: human kidney, Triton X-100 extract of microsomes
T1 sequence (P19440 1-380 limits assumed): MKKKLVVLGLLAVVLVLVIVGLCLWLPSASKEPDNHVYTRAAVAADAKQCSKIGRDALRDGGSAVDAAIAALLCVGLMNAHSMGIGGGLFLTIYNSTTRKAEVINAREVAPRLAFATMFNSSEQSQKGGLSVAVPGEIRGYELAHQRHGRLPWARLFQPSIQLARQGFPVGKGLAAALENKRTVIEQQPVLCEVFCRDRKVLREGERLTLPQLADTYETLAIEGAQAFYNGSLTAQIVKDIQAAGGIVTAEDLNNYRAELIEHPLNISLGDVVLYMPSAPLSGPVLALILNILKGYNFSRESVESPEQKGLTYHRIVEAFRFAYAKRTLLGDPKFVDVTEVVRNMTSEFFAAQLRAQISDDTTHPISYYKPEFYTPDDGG
T1 sequence (P19440 381-569 limits assumed): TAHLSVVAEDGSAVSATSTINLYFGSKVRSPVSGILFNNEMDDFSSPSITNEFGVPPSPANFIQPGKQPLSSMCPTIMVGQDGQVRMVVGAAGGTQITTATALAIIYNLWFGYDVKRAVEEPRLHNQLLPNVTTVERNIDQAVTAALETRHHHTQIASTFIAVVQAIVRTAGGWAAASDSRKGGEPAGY
Description: (§1) An assay method was developed to screen for inhibitors of GGT. The assays were conducted in 96-well plates. The final volume in each well was 100 μL. The assay buffer contained: 100 mM Na2HPO4 pH 7.4, with 3.2 mM KCI, 1.8 mM KH2PO4, and 27.5 mM NaCl. Each reaction contained 1 mM L-glutamic acid γ-4-nitroanilide HCI (GpNA) and 40 mM glycyl-glycine (Gly-Gly)(19). GGT is expressed on the cell surface and the assay was initiated by addition of 10^4 786-O cells (ATCC CRL-1932, a GGT-positive human renal cell adenocarcinoma line).
(§2) GGT was isolated from human kidney (National Disease Research Interchange, Philadelphia, PA), male Sprague-Dawley rat kidney and female Balb/c mouse kidney. Tissue was homogenized in 4 volumes of 25 mM Tris pH 7.5, containing 0.33 M sucrose, 0.2 mM EDTA, 1 μM leupeptin and 1.4 μg/ml aprotinin. A 9000 g supernatant was spun at 100,000 g for 1 h. The microsomal pellet was homogenized in 25 mM Tris pH 7.35, 0.5% Triton X-100, 1 μM leupeptin, 1.4 μg/ml aprotinin then centrifuged again at 100,000 g for 1 h. The supernatant was assayed for GGT activity, aliquoted, and stored at −80° C. until further use. All solutions were maintained at 4° C. throughout the isolation. The specific activities of GGT were 3.4, 7.4, and 1.5 units/mg protein for human, rat, and mouse preparations, respectively. Prior to use in the GGT assay, the enzyme was diluted in phosphate-buffered saline (PBS) containing 0.025% Triton X-100 and 0.19 m Units of enzyme were used per assay unless otherwise indicated.
(§3) The concentrations of the substrate GpNA and the acceptor Gly-Gly were varied as indicated. Purified GGT was added to initiate the assay. The reaction was monitored as described for the high throughput screening.
Initial velocity data were first analyzed graphically using double-reciprocal plots of initial velocities versus substrate concentration and suitable secondary plots.
Data for competitive and uncompetitive inhibition were fitted using Equations 1 and 2.

[3] = target: T2, human GGT expressed in Pichia pastoris (Homo sapiens, UniProt P19440); experiment: GGT kinetic assay with purified human GGT expressed in Pichia pastoris; assay type: biochemical
T2 construct: The soluble domain of human GGT (amino acids 28-569) was amplified by PCR; His6 (TEV protease-cleavable) (N, cleaved yes); made in house; host or cells: Pichia pastoris strain X-33 (pPICZαA, plasmid pMW-102), secreted
T2 sequence (P19440 28-569): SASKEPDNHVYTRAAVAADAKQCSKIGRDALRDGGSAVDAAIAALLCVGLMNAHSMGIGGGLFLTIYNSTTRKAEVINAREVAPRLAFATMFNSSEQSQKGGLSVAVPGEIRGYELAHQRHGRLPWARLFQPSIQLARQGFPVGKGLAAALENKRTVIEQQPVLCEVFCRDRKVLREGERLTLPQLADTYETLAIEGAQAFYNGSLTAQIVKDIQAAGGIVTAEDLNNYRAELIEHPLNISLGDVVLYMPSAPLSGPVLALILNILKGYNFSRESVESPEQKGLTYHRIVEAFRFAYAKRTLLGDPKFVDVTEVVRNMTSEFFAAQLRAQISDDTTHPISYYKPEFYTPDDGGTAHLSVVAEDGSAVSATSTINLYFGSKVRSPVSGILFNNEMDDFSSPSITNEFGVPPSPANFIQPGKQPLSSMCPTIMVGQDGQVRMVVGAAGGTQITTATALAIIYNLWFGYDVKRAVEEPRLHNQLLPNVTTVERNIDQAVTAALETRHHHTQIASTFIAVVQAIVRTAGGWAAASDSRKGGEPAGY
Description: The soluble domain of human GGT (amino acids 28-569) was amplified by PCR. The forward primer introduced a EcoRI restriction site and a TEV protease-cleavable N-terminal His6 tag, while the reverse primer introduced a NotI restriction site after the stop codon of genomic GGT. The PCR product was digested with EcoRI and Not I and inserted into the corresponding sites of pPICZαA (Invitrogen), generating plasmid pMW-102. This construct was amplified in E. coli DH5α cells. The fidelity of the recombinant ORF was verified by sequencing (Oklahoma Medical Research Foundation's DNA Sequencing Core Facility, Oklahoma City, Okla.). The SacI-linearized plasmid, pMW-102, was purified and transformed into wild-type Pichia pastoris strain X-33, selected and induced as recommended by Invitrogen. Secreted, recombinant, His6-tagged, human GGT was collected from the media with a Ni-NTA column. The hexahistidine tag was cleaved with His6-tagged TEV protease. […]
The concentrations of the substrate GpNA and the acceptor Gly-Gly were varied as indicated. […] The reaction was monitored as described for the high throughput screening.
Initial velocity data were first analyzed graphically using double-reciprocal plots of initial velocities versus substrate concentration and suitable secondary plots. […]

[4] = target: T3, GGT isolated from rat kidney (Rattus norvegicus, UniProt P07314); experiment: Inhibition of GGT isolated from rat kidney; assay type: biochemical; details: rat kidney GGT (FIG. 5A)
T3 construct: male Sprague-Dawley rat kidney; from tissue; host or cells: male Sprague-Dawley rat kidney, Triton X-100 extract of microsomes
T3 sequence (P07314 whole entry): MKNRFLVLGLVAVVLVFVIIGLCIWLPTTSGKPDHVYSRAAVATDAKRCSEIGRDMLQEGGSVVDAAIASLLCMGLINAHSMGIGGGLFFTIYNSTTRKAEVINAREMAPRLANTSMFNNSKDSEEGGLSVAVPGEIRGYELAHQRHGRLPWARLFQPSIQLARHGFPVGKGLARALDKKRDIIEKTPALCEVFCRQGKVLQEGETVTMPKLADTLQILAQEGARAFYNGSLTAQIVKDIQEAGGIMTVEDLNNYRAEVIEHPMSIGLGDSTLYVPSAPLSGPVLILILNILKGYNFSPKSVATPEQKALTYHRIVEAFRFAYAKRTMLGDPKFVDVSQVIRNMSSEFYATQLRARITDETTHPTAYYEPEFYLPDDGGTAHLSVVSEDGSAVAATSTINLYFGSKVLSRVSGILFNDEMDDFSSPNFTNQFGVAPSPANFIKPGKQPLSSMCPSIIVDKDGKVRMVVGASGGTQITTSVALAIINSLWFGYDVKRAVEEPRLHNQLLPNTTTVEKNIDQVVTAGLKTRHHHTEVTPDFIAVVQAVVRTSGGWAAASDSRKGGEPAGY
Description: as §2, §3

GGT from mouse kidney = target: T4, GGT from mouse kidney (Mus musculus, UniProt Q60928); experiment: Inhibition of GGT isolated from mouse kidney; assay type: biochemical; details: mouse kidney GGT (FIG. 5A)
T4 construct: female Balb/c mouse kidney; from tissue; host or cells: female Balb/c mouse kidney, Triton X-100 extract of microsomes
Description: as §2, §3

[5] = target: T5, GGT in 786-O and HK-2 cells (Homo sapiens, UniProt P19440); experiment: Inhibition of cell-surface GGT in human kidney cell lines; assay type: cell-based; details: 786-O and HK-2 (FIG. 5B)
T5 construct: GGT is expressed on the cell surface; CRL-2190 (HK-2); host or cells: 786-O human renal adenocarcinoma cells; HK-2 human proximal tubule cells
T5 sequence (P19440 whole entry): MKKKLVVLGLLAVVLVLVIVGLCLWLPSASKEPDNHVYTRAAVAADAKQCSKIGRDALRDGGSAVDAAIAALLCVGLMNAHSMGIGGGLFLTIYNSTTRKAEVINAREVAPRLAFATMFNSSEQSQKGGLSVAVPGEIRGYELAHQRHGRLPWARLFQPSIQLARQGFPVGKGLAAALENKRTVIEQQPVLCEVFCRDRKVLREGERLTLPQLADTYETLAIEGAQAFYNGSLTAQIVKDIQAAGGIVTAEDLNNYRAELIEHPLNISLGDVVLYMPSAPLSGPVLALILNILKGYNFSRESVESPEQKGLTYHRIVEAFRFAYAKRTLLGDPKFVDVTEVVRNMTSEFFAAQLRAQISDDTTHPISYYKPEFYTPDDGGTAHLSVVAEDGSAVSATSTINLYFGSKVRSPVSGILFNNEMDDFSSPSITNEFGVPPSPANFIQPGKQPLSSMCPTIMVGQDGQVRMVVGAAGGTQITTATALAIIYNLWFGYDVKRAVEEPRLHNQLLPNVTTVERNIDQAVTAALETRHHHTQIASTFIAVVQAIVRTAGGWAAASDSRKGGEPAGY
Description: as §1
(§4) LLC-PKI (ATCC CRL 1392), a pig kidney cell line, NRK-52E (ATCC CRL-1571), a normal rat kidney cell line, LLC-MK2 (ATCC CCL-7), a normal kidney monkey cell line, and 786-O cells were grown in complete Dulbecco's Modified Eagle's Medium (DMEM) supplemented with 5% FBS (Hyclone, Logan, Utah), and penicillin/streptomycin (50 U/mL, 50 μg/mL) (Invitrogen, Carlsbad, Calif.). NIH/3T3 cells transfected with cDNA encoding human GGT were described previously and were grown in DMEM/F12 containing 200 μg/mL of G418 (6). HK-2 (ATCC CRL-2190), a human cell line derived from immortalized normal proximal tubule cells, were grown in keratinocyte serum-free media (K-SFM) from ATCC (Manassas, Va.). The cells were trypsinized off the plates and suspended in PBS for the GGT assay.

GGT in NRK-52E cells = target: T6, GGT in NRK-52E cells (Rattus norvegicus, UniProt P07314); experiment: Inhibition of cell-surface GGT in rat kidney cell line; assay type: cell-based; details: NRK-52E (FIG. 5B)
T6 construct: NRK-52E (ATCC CRL-1571), a normal rat kidney cell line; host or cells: NRK-52E rat kidney cells
T6 sequence (P07314 whole entry): as the sequence (P07314 whole entry) above
Description: as §1, §4

GGT in LLC-PK1 cells = target: T7, GGT in LLC-PK1 cells (Sus scrofa, UniProt P20735); experiment: Inhibition of cell-surface GGT in pig kidney cell line; assay type: cell-based; details: LLC-PK1 (FIG. 5B)
T7 construct: LLC-PKI (ATCC CRL 1392), a pig kidney cell line; host or cells: LLC-PK1 pig kidney cells
Description: as §1, §4

GGT in LLC-MK2 cells = experiment: Inhibition of cell-surface GGT in monkey kidney cell line; assay type: cell-based; details: LLC-MK2 (FIG. 5B)
Description: as §1, §4

[6] = target: T8, human GGT expressed in mouse NIH3T3 fibroblasts (Homo sapiens, UniProt P19440); experiment: Inhibition of human GGT expressed in mouse NIH3T3 fibroblasts; assay type: cell-based; details: NIH3T3 transfected with human GGT cDNA (FIG. 5B)
T8 construct: expressed in transfected cells; host or cells: NIH/3T3 mouse fibroblasts, G418-selected
T8 sequence (P19440 whole entry): as the sequence (P19440 whole entry) above
Description: as §1, §4

human kidney GGT = target: T9, human kidney GGT (Homo sapiens, UniProt P19440); experiment: Glutathione degradation by human kidney GGT; assay type: biochemical
T9 construct: GGT was isolated from human kidney; tissue National Disease Research Interchange, Philadelphia, PA; host or cells: human kidney, Triton X-100 extract of microsomes
T9 sequence (P19440 1-380 limits assumed): as the sequence (P19440 1-380 limits assumed) above
T9 sequence (P19440 381-569 limits assumed): as the sequence (P19440 381-569 limits assumed) above
Description: (§5) An incubation mixture contained 1 mM glutathione, 40 mM glycyl-glycine, and inhibitor in the GGT assay buffer. Reactions were initiated with the addition of 1.9 mU of GGT and incubated at 37° C. The final volume of the reaction was 100 μL. Aliquots of the reaction mixture were removed at the specified time points, immediately acidified with an equal volume of cold 4.31% 5-sulfosalicylic acid, and maintained at 4° C. until glutathione concentration was determined by the method of Tietze (21).

GGT from rat kidney = target: T10, GGT from rat kidney (Rattus norvegicus, UniProt P07314); experiment: Glutathione degradation by rat kidney GGT; assay type: biochemical; details: 1 mM glutathione, 40 mM glycylglycine (FIG. 6B)
T10 construct: male Sprague-Dawley rat kidney; from tissue; host or cells: male Sprague-Dawley rat kidney, Triton X-100 extract of microsomes
T10 sequence (P07314 whole entry): as the sequence (P07314 whole entry) above
Description: as §5

[7] = appKi obtained by varying GpNA, glygly fixed at 40 mM, uncompetitive, read-out: Inhibition of Transpeptidation (Alpha Ki)

N[C@H](C(=O)O)[C@@H]1CC(Cl)=NO1 [Acivicin, acivicin, reference compound]
LD50 (786-O cells; human, 72 h): 0.81 µM | complete cure of metastatic melanoma to the liver, share of test animals [1]: 90%

COc1ccc(Cc2nnc(NS(=O)(=O)c3ccccc3)s2)cc1 [Compound 3, N-[5-(4-methoxybenzyl)-1,3,4-thiadiazol-2-yl]benzenesulfonamide]
inhibition of GGT isolated from human kidney ([2]; 0-125 μM, 40 mM glycylglycine (FIG. 3)): inhibited GGT isolated from human kidney in a dose-dependent manner | type of inhibition with respect to GpNA ([2]; GpNA varied, glygly 40 mM): uncompetitive | Ki [2, 7]: 73.8 ± 2.5 µM | Ki ([2]; fit of data of FIGS. 4A-D to the equation for noncompetitive inhibition, read-out: Ki binding to the E form of the enzyme): > 200 µM | type of inhibition with respect to glygly ([2]; glygly varied, GpNA 3 mM): competitive | Ki ([2]; glygly varied, GpNA maintained at 3 mM, read-out: Ki, competitive with respect to glygly (intrinsic value)): 17.6 ± 3.8 µM | weaker binding to the E form ([2]; relative to binding in the presence of the γ-glutamyl moiety): > 10 fold | Ki ([3]; GpNA varied, 40 mM glycylglycine, read-out: appKi obtained varying GpNA): 58.2 ± 1.6 µM | Ki ([3]; glygly varied, 3 mM GpNA, read-out: appKi as a competitive inhibitor of glygly): 25 ± 2 µM | fold less toxic than acivicin (786-O cells; 786-O cells in log growth): more than 150 fold | toxicity relative to acivicin (786-O cells; 786-O cells in log growth): at least an order of magnitude less toxic than acivicin | fold less toxic than acivicin (786-O cells; 786-O cells in log growth, listed as compound 3): 150 fold | LD50 (786-O cells; dividing 786-O cells, 3 days with test compound, MTT): 128 µM | fold less potent than against GGT isolated from human kidney [4]: 7 fold | fold less potent than against GGT isolated from human kidney (GGT from mouse kidney): 10 fold | inhibition of GGT in human kidney cell lines [5]: dose-dependent inhibition | inhibition of GGT in rat kidney cell line (GGT in NRK-52E cells): only weakly inhibited | inhibition of GGT in pig kidney cell line (GGT in LLC-PK1 cells): not inhibited | inhibition of GGT in monkey kidney cell line (GGT in LLC-MK2 cells): only weakly inhibited | inhibition of human GGT expressed in mouse cells [6]: inhibited by compound 3 to the same extent as human GGT expressed in other human cells | inhibition of cleavage of glutathione (human kidney GGT; 1 mM glutathione, 40 mM glycylglycine, 62.5-500 uM compound (FIG. 6A)): inhibited the cleavage of glutathione in a dose-dependent manner; also recorded: inhibited glutathione breakdown by human GGT | inhibition of cleavage of oxidized glutathione (GSSG) (human kidney GGT; human GGT, data not shown): inhibited the cleavage of oxidized glutathione | inhibition of degradation of glutathione (GGT from rat kidney): unable to inhibit; also recorded: did not inhibit

O=S(=O)(Nc1nnc(Cc2ccccc2)s1)c1ccc(Cl)cc1 [Compound 4]
Ki [2, 7]: 75.9 ± 1.7 µM

COc1ccc(Cc2nnc(NS(=O)(=O)c3ccc([N+](=O)[O-])cc3)s2)cc1 [Compound 7]
Ki [2, 7]: 114 ± 8.4 µM

COc1ccc(S(=O)(=O)Nc2nnc(Cc3ccc(OC)c(OC)c3)s2)cc1 [Compound 9]
Ki [2, 7]: 1110 µM

N[C@@H](CCC(=O)Nc1ccc([N+](=O)[O-])cc1)C(=O)O [GpNA, L-glutamic acid γ-4-nitroanilide HCI, reference compound]
Michaelis constant of the substrate (Kglygly, KGpNA) [2]: 1.07 ± 0.04 mM

NCC(=O)NCC(=O)O [glygly, glycyl-glycine, reference compound] (H-Gly-Gly-OH)
Michaelis constant of the substrate (Kglygly, KGpNA) [2]: 11.4 ± 1.2 mM
